According to article PMC5465257, “Evaluation of JNJ-54717793 a Novel Brain Penetrant Selective Orexin 1 Receptor Antagonist in Two Rat Models of Panic Attack Provocation” (Frontiers in Pharmacology, 2017):

Legend:
human OX2R = biological target: T1, human OX2R (Homo sapiens, UniProt O43614); test: Calcium mobilization functional assay, PFSK-1 cells, OX-B; assay type: cell-based
T1 sequence (O43614 1-444): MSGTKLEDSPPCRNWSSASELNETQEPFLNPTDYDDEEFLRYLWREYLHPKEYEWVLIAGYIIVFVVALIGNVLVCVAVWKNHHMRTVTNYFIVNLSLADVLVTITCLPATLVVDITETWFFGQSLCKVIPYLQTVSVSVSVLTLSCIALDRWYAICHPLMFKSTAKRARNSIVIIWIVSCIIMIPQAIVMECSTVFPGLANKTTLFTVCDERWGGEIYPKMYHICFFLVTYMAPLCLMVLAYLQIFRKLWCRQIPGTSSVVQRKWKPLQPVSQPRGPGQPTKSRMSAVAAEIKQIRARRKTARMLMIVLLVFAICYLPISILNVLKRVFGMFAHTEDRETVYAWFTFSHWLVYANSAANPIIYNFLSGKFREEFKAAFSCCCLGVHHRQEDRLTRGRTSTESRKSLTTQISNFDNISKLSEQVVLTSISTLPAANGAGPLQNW
Protocol: The human OX2R functional assay used PFSK-1 cells which are a human neuroectodermal cell line that innately expresses the OX2R. Since the intracellular calcium response is transient and not consistent with equilibrium assumptions, the assays were performed by giving a standard, EC80 dose of the OX agonist and calculating a pKB from inhibition of the agonist response by a dose range of the antagonists. The cells were plated in black 96 well tissue culture plates with clear bottoms at 50,000 cells/well and grown overnight at 37°C in 5% carbon dioxide (CO2). […] The cell plate was then transferred to the Molecular Devices Fluorometric Imaging Plate Reader (FLIPR) Tetra instrument, which adds the OX agonist and monitors changes in fluorescence which reflect intracellular calcium levels.
Results were calculated using GraphPad Prism (San Diego, CA, United States) software. Raw data from the FLIPR Tetra was exported as the difference between maximum and minimum fluorescence observed for each well. A non-linear regression was used to determine the agonist EC50 and antagonist IC50 for each plate, then the antagonist KB was calculated according to Cheng and Prusoff ([Cheng and Prusoff, 1973]).

[1] = tested on: panel of 50 receptors, ion channels and transporters; test: Selectivity binding panel of 50 receptors, ion channels and transporters (Eurofins); settings: at 10 μM; any receptor/transporter/ion channel other than the OX1R
Protocol: These assays were performed by Eurofins (Celles L’Evescault, France).

[2] = tested on: C57Bl6 OX2R knockout (KO) mice; test: Sleep recording (EEG/EMG) in OX2R knockout mice; assay type: in vivo, mouse
Protocol: Sleep experiments were conducted in male Sprague-Dawley rats (350–450 g, Harlan Laboratories, Livermore, CA, United States) and in male C57Bl6 OX2R knockout (KO) and corresponding wild-type mice (30–35 g, Charles River Laboratories, San Diego, CA, United States) as described previously ([Dugovic et al., 2009]). Animals were chronically implanted with telemetric devices (Data Sciences International, St. Paul, MN, United States) for the recording of electroencephalogram (EEG) and electromyogram (EMG) signals. Polysomnographic waveforms were analyzed per 10-s epoch and classified as wake, non-rapid eye movement (NREM) or REM sleep by using the computer software program SleepSign (Kissei Comtec, Nagano, Japan). For each experiment, EEG and EMG signals were recorded for up to 6 h after administration of the tested compounds. Analysis of sleep parameters included latency to NREM sleep (defined as the time interval to the first six consecutive NREM epochs) and REM sleep (the first two consecutive REM epochs post-treatment), and the duration of NREM and REM.
Results were averaged and expressed as mean ± SEM in defined time intervals. To determine whether differences were significant at a given interval, either paired Student’s t-test or two-way analysis of variance (ANOVA) (interaction time × treatment), repeated measures followed by Bonferroni post hoc test was performed.
In the present study, the in vivo functional target engagement was investigated in a model of permanent inhibition of OX2R, and the effects of JNJ-5471773 on sleep-wake states were examined in mice lacking the OX2R relative to their corresponding wild-type mice. […] NREM sleep latency and duration were not affected in both genotypes (not shown).

Sprague-Dawley rats = test: Normoxic 20% CO2 panic provocation model
Protocol: Experiments were performed in male Sprague-Dawley rats (300–350 g, Harlan Laboratory, Indianapolis, IN, United States). […] Following exposure to hypercarbic and atmospheric air gasses, rats were immediately placed in the open-field box for a 5 min period then assessed in SI test for 5 min. The data reported are changes in activity, expressed in 1 min bins, relative to the average of the baseline measurement (t-5 to t-1 minute) from each rat.
Each dependent variable for assessment of behavior and radiotelemetry data was respectively analyzed using a one way ANOVA, or a one way ANOVA with repeated measures with drug treatment as the main factor and time as repeated measures. In the presence of significant main effects post hoc tests were conducted using a parametric Fisher’s LSD test. Within subjects time effects were also assessed using a Dunnett’s one way analysis with the minute prior to the i.v infusion used as the control. Statistical significance was accepted with p < 0.05. All statistical analyses were carried out using SPSS 13.0 (SPSS, Inc., Chicago, IL, United States) and all graphs were generated using SigmaPlot 2001 (SPSS, Inc., Chicago, IL, United States) or Graphpad Prizm 7 Software, Inc. for Windows.
Activation of the OX1R is a critical component of CO2-mediated anxiety and hypertension ([Johnson et al., 2012a]). Exposing rats to higher concentrations of hypercarbic gas (e.g., 20% CO2) depolarizes OX neurons by interacting with pH/ CO2 chemosensitive K^+ channels ([Williams et al., 2007]), and also causes subsequent release of orexin at post-synaptic targets in the brain and spinal cord to mobilize anxiety-like behavior, hypertension, and increases ventilatory responses ([Johnson et al., 2012c], [2015]). JNJ-54717793 was tested in a rat model of CO2-induced panic.

O=C(c1cccc(F)c1-c1ncccn1)N1[C@@H]2CC[C@H]1[C@H](Nc1cnc(C(F)(F)F)cn1)C2 [JNJ-54717793, (1S,2R,4R)-7-([(3-fluoro-2-pyrimidin-2-ylphenyl)carbonyl]-N-[5-(trifluoromethyl)pyrazin-2-yl]-7-azabicyclo[2.2.1]heptan-2-amine)]
Kb (human OX2R): 309 nM
inhibition in selectivity panel [1]: < 50%
NREM sleep latency and duration ([2]; 30 mg/kg oral (not shown)): not affected
time spent in REM sleep ([2]; 30 mg/kg oral, first 6 h post-treatment, versus vehicle): prolonged
latency for REM sleep ([2]; 30 mg/kg oral, versus vehicle): significantly reduced
CO2-induced pressor responses (MAP) (Sprague-Dawley rats; rats, 3 mg/kg p.o.): at one time point
CO2-induced pressor responses (MAP) (Sprague-Dawley rats; rats, 30 mg/kg p.o.): attenuated CO2-induced pressor responses at multiple time points
increases in locomotor activity post CO2 (Sprague-Dawley rats; rats, 3, 10, 30 mg/kg p.o.): no effect
CO2-induced bradycardia responses (HR) (Sprague-Dawley rats; rats, 10 and 30 mg/kg p.o.): attenuated CO2-induced bradycardia responses at multiple time points
center or middle times in the open field test (Sprague-Dawley rats; rats, after CO2 challenge): Nor was there an effect
sedative effects (line crossings) in the open field test (Sprague-Dawley rats; rats, after CO2 challenge): no apparent sedative effects
CO2-induced anxiety behavior in the SI test (Sprague-Dawley rats; rats, highest dose (30 mg/kg p.o.)): attenuated/blocked
